{"source": "patent US10091998B2", "about": "“Tetrazolinone compound and use thereof” (SUMITOMO CHEMICAL COMPANY, LIMITED, priority 2013, dated 2018)", "test_system": "second-instar larvae of diamondback moth (Plutella xylostella)", "experiment": "Test Example 11: diamondback moth mortality on treated cabbage", "assay_type": "in vivo", "conditions": "120 h, 500 ppm spray on cabbage, 20 mL per cup, 5 days at 25° C.", "experimental": "As a test chemical solution used in the present test example, a water dilution (test chemical solution) was prepared so as to contain a predetermined concentration (500 ppm) of any one compound of the present compounds 1, 15, 17, and 55.\nThe test chemical solution was sprayed over cabbage in three-leaf stage sowed and grown in a polyethylene at a rate of 20 mL per cup. After drying the chemical solution, the stem and leaf portions were cut and disposed in a 50 mL cup. Five (5) heads of second-instar larvae of diamondback moth (Plutella xylostella) were released and then a lid was put on the cup. After storage at 25° C. for 5 days, the number of the dead insects was counted and mortality was calculated by the following equation. Mortality (%)=(number of dead insects/number of tested insects)×100", "data": [{"smiles": "Cc1cccc(-n2nnn(C)c2=O)c1OCc1ccccc1", "note": "[Present Compound 1, 1-(2-phenylmethoxy-3-methylphenyl)-4-methyl-1,4-dihydrotetrazol-5-one]", "values": [{"measurement": "mortality at 500 ppm", "value": "≥ 80", "unit": "%"}]}, {"smiles": "Cc1ccc(-c2ccc(COc3c(C)cccc3-n3nnn(C)c3=O)c(C)c2)cc1", "note": "[Present Compound 15]", "values": [{"measurement": "mortality at 500 ppm", "value": "≥ 80", "unit": "%"}]}, {"smiles": "Cc1cc(-c2ccccc2C)ccc1COc1c(C)cccc1-n1nnn(C)c1=O", "note": "[Present Compound 17]", "values": [{"measurement": "mortality at 500 ppm", "value": "≥ 80", "unit": "%"}]}, {"smiles": "COc1ccccc1-c1csc(COc2c(C)cccc2-n2nnn(C)c2=O)n1", "note": "[Present Compound 55, 2-({[1-(4,5-dihydro-4-methyl-5-oxo-1H-tetrazol-1-yl)-3-methylphenyl-2-yl]oxy}methyl)-4-(2-methoxyphenyl)thiazole]", "values": [{"measurement": "mortality at 500 ppm", "value": "≥ 80", "unit": "%"}]}]}
